In patent US20230295152A1 (SENDA BIOSCIENCES, INC., priority 2019, published 2023):

Legend:
AHR = target: T1, AHR (Homo sapiens, UniProt P35869); experiment: DRE-Luciferase Reporter Assay, HepG2 AhR-Lucia reporter cells; type: cell-based; settings: with AHR activating ligand at EC50, read-out: HepG2-Luc IC50
T1 construct: other cell line with a DRE-luciferase reporter stably transfected; endogenous in cells; host or cells: HepG2 AhR-Lucia reporter cells
T1 sequence (P35869 11-848): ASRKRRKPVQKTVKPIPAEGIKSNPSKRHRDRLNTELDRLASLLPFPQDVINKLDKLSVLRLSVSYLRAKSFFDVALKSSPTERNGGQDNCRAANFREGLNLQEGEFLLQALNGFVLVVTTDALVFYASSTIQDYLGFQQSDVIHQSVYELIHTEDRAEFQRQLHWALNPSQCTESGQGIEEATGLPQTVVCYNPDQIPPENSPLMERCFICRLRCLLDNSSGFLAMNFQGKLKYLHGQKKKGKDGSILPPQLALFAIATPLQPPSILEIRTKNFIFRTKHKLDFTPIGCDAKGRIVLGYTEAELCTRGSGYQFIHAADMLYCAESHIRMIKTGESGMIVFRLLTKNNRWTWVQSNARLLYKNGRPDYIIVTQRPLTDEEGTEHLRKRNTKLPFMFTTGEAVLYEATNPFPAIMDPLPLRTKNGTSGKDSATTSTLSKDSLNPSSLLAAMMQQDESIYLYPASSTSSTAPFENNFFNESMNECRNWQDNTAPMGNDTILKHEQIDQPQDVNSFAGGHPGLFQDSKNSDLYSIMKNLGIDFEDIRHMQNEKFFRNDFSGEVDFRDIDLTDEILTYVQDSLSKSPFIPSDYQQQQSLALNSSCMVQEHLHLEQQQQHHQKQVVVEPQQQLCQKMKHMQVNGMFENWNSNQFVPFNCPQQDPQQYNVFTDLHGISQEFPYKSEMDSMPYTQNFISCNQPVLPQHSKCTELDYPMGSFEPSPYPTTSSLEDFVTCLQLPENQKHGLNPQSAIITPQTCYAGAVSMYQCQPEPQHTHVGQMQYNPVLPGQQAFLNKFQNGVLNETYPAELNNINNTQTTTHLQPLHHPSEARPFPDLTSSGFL
Outline: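 Antagonism read as inhibition of agonist-driven secreted luciferase in stably DRE-reporter-transfected cells such as HepG2 AhR-Lucia. Agonist ligand at EC50 concentration added 1 hr post-plating alongside antagonist (log series, top 100 uM); supernatant read at 24 or 48 h, IC50 derived against agonist-only maximum.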

[1] = Hepatocyte Stability Assay, rat; type: in vitro ADME; settings: for Rat hepatocyte clearance: rat hepatocytes; as to all read-outs here: tested at 1 µM
Description: • Preparation of working solutions: 10 mM stock solutions of test compound and positive control were prepared in DMSO. In separate conical tubes, the 10 mM solution of test compound and the positive control were diluted to 100 μM by combining 198 μL of 50% acetonitrile/50% water and 2 μL of 10 mM stock.
Preparation of Hepatocytes: Incubation medium (William's E Medium supplemented with GlutaMAX) and hepatocyte thawing medium were placed in a 37° C. water bath and allowed warming for at least 15 minutes prior to use. A vial of cryopreserved hepatocytes was transferred from storage, ensuring that vials remained at cryogenic temperatures until thawing process ensued. Cells were thawed by placing the vial in a 37° C. water bath and gently shaking the vials for 2 minutes. After thawing was completed, vial was sprayed with 70% ethanol and transferred to a biosafety cabinet. Wide-bore pipette tip were used to transfer hepatocytes into 50 mL conical tube containing thawing medium. The 50 mL conical tube were placed into a centrifuge and spun at 100 g for 10 minutes. Upon completion of spin, thawing medium was aspirated and resuspended hepatocytes in enough incubation medium to yield ˜1.5×10^6 cells/mL. Using an AO/PI Staining, cells were counted and the viable cell density was determined. Cells with poor viability (<75% viability) were determined to be not acceptable for use. Cells were diluted with incubation medium to a working cell density of 0.5×10^6 viable cells/mL.
Procedure for Stability Determination: 198 μL of hepatocytes were pipetted into each wells of a 96-well non-coated plate. The plate was placed in the incubator to allow the hepatocytes to warm for 10 minutes. 2 μL of the 100 μM test compound or positive control solutions were pipetted into respective wells of the 96-well non-coated plate to start the reaction. The plate was returned to the incubator for the designed time points. Well contents was transferred in 25 μL aliquots at time points of 0, 15, 30, 60, 90 and 120 minutes. The aliquots were then mixed with 6 volumes (150 μL) of acetonitrile containing internal standard, IS (100 nM alprazolam, 200 nM caffeine and 100 nM tolbutamide) to terminate the reaction. The mixture was vortex for 5 minutes. Samples were centrifuged for 45 minutes at 3,220 g. An aliquot of 100 μL of the supernatant was diluted by 100 μL ultra-pure water, and the mixture was used for LC/MS/MS analysis. All incubations were performed in duplicate.
Data Analysis: All calculations were carried out using Microsoft Excel. Peak areas were determined from extracted ion chromatograms. In vitro half-life (t1/2) of parent compound was determined by regression analysis of the percent parent disappearance vs. time curve.
The in vitro half-life (in vitro t1/2) was determined from the slope value:
Conversion of the in vitro t1/2 (in min) into the in vitro intrinsic clearance (in vitro CLint, in μL/min/1×10^6 cells) was done using the following equation (mean of duplicate determinations):
V=incubation volume(0.2 mL);
N=number of hepatocytes per well(0.1×10^6 cells).
“+++” indicates a CLint value less than 20 mL/min/Kg, “++” indicates a CLint between 20 and 50 mL/min/Kg, and “+” indicates an CLint above 50 mL/min/Kg.

Row | IC50 (AHR) | Structure (SMILES) | Rat hepatocyte clearance [1] | Suspension Rat heps Clint (% Qh) ([1]; suspension rat hepatocytes)
1 | < 100 nM | C[C@@H](CO)n1cnc2c(-c3cnn(C)c3)nc(-c3ccc(C(F)(F)F)nc3)cc2c1=O [Compound 68] | +++ (“+++” indicates a CLint value less than 20 mL/min/Kg) | –
2 | < 100 nM | O=c1c2cc(-c3ccc(C(F)(F)F)nc3)nc(-c3cccnc3)c2ncn1[C@@H]1COC[C@H]1O [Compound 79] | +++ (“+++” indicates a CLint value less than 20 mL/min/Kg) | –
3 | < 100 nM | C[C@@H](CO)n1cnc2c(-c3cccnc3)nc(-c3ccc(C4CC4)nc3)cc2c1=O [Compound 74] | ++ (“++” indicates a CLint between 20 and 50 mL/min/Kg) | –
4 | < 100 nM | CC(C)(O)Cn1cnc2c(-c3cccnc3)nc(-c3ccc(C(F)(F)F)cn3)cc2c1=O [Compound 105] | +++ (“+++” indicates a CLint value less than 20 mL/min/Kg) | –
5 | < 100 nM | C[C@@H](CO)n1cnc2c(-c3cnsc3)nc(-c3ccc(C(F)(F)F)cn3)cc2c1=O [Compound 102, (S)-3-(1-hydroxypropan-2-y1)-8-(isothiazol-4-yl)-6-(5-(trifluoromethyl)pyridin-2-yl)pyrido[3,4-d]pyrimidin-4(3H)-one] | – | –
6 | < 100 nM | C[C@@H](O)Cn1cnc2c(-c3cccnc3)nc(-c3ccc(C(F)(F)F)cn3)cc2c1=O [Compound 144, (R)-3-(2-hydroxypropyl)-8-(pyridin-3-yl)-6-(5-(trifluoromethyl)pyridin-2-yl)pyrido[3,4-d]pyrimidin-4(3H)-one] | – | –
7 | < 100 nM | C[C@@H](CO)n1cnc2c(-c3cnsc3)nc(-c3ccc(C(F)(F)F)nc3)cc2c1=O [Compound 55] | – | –
8 | < 100 nM | C[C@@H](CO)n1cnc2c(-n3ccnc3)nc(-c3ccc(C(F)(F)F)nc3)cc2c1=O [Compound 163, (S)-3-(1-hydroxypropan-2-yl)-8-(1H-imidazol-1-yl)-6-(6-(trifluoromethyl)pyridin-3-yl)pyrido[3,4-d]pyrimidin-4(3H)-one] | – | –
9 | < 100 nM | CC(C)(O)Cn1cnc2c(-n3ccnc3)nc(-c3ccc(C(F)(F)F)cn3)cc2c1=O [Compound 160, 3-(2-hydroxy-2-methylpropyl)-8-(1H-imidazol-1-yl)-6-(5-(trifluoromethyl)pyridin-2-yl)pyrido[3,4-d]pyrimidin-4(3H)-one] | – | –
10 | < 100 nM | CC(C)(O)Cn1cnc2c(-c3cnsc3)nc(-c3ccc(C(F)(F)F)nc3)cc2c1=O [Compound 54] | – | –
11 | < 100 nM | C[C@H](n1cnc2c(-c3cccnc3)nc(-c3cccnc3)cc2c1=O)C(C)(C)O [Compound 34] | – | –
12 | > 500 nM | Cc1nc(-c2cc3c(=O)n([C@@H](C)CO)cnc3c(-c3cccnc3)n2)cs1 [Compound 183, (S)-3-(1-hydroxypropan-2-yl)-6-(2-methylthiazol-4-yl)-8-(pyridin-3-yl)pyrido[3,4-d]pyrimidin-4(3H)-one] | – | –
13 | < 100 nM | O=c1c2cc(-c3ccc(C(F)(F)F)nc3)nc(-c3cccnc3)c2ncn1C[C@@H](O)C(F)(F)F [Compound 122, (R)-8-(pyridin-3-yl)-3-(3,3,3-trifluoro-2-hydroxypropyl)-6-(6-(trifluoromethyl)pyridin-3-yl)pyrido[3,4-d]pyrimidin-4(3H)-one] | – | –
14 | < 100 nM | C[C@@H](CO)n1cnc2c(-c3cnn(C)c3)nc(-c3ccc(OC(F)(F)F)cc3)cc2c1=O [Compound 25] | – | –

Continued, compound first:

Row | Structure (SMILES) | IC50 (AHR) | Rat hepatocyte clearance [1] | Suspension Rat heps Clint (% Qh) ([1]; suspension rat hepatocytes)
15 | C[C@H](n1cnc2c(-c3cnn(C)c3)nc(-c3ccc(Cl)cc3)cc2c1=O)C(C)(C)O [Compound 30] | < 100 nM | ++ (“++” indicates a CLint between 20 and 50 mL/min/Kg) | –
16 | O=c1c2cc(-c3ccc(Cl)cc3)nc(-c3cccnc3)c2ncn1[C@H]1COC[C@@H]1O [Compound 125, 6-(4-chlorophenyl)-3-((3S,4R)-4-hydroxytetrahydrofuran-3-yl)-8-(pyridin-3-yl)pyrido[3,4-d]pyrimidin-4(3H)-one] | < 100 nM | + (“+” indicates an CLint above 50 mL/min/Kg) | –
17 | CC(C)(O)Cn1cnc2c(-c3cccnc3)nc(-c3ccc(Cl)cc3)cc2c1=O [Compound 18] | < 100 nM | +++ (“+++” indicates a CLint value less than 20 mL/min/Kg) | –
18 | CC(C)(O)Cn1cnc2c(-c3cccnc3)nc(-c3ccc(C(F)(F)F)cc3)cc2c1=O [Compound 16] | < 100 nM | +++ (“+++” indicates a CLint value less than 20 mL/min/Kg) | –
19 | C[C@@H](CO)n1cnc2c(-c3cccc(F)c3)nc(-c3ccc(Cl)cc3)cc2c1=O [Compound 7] | < 100 nM | ++ (“++” indicates a CLint between 20 and 50 mL/min/Kg) | –
20 | C[C@@H](CO)n1cnc2c(-c3cccnc3)nc(-c3ccc(C(F)(F)F)cn3)cc2c1=O [Compound 46, (S)-3-(1-hydroxypropan-2-yl)-8-(pyridin-3-yl)-6-(5-(trifluoromethyl)pyridin-2-yl)pyrido[3,4-d]pyrimidin-4(3H)-one] | < 100 nM | +++ (“+++” indicates a CLint value less than 20 mL/min/Kg) | < 24 % Qh
21 | Cn1cc(-c2nc(-c3ccc(Cl)cc3)cc3c(=O)n([C@H]4COC[C@H]4O)cnc23)cn1 [Compound 92] | < 100 nM | – | –
22 | O=c1c2cc(-c3ccc(C(F)(F)F)cn3)nc(-c3cccnc3)c2ncn1C[C@@H](O)C(F)(F)F [Compound 154, (R)-8-(pyridin-3-yl)-3-(3,3,3-trifluoro-2-hydroxypropyl)-6-(5-(trifluoromethyl)pyridin-2-yl)pyrido[3,4-d]pyrimidin-4(3H)-one] | < 100 nM | – | –
23 | O=c1c2cc(-c3ccc(C(F)(F)F)cn3)nc(-c3cccnc3)c2ncn1[C@@H]1COC[C@H]1O [Compound 140, 3-((3R,4S)-4-hydroxytetrahydrofuran-3-yl)-8-(pyridin-3-yl)-6-(5-(trifluoromethyl)pyridin-2-yl)pyrido[3,4-d]pyrimidin-4(3H)-one] | < 100 nM | – | –
24 | O=c1c2cc(-c3ccc(Cl)cc3)nc(-c3cccnc3)c2ncn1[C@@H]1COC[C@H]1O [Compound 152, 6-(4-chlorophenyl)-3-((3R,4S)-4-hydroxytetrahydrofuran-3-yl)-8-(pyridin-3-yl)pyrido[3,4-d]pyrimidin-4(3H)-one] | < 100 nM | – | –
25 | O=c1c2cc(-c3ccc(C(F)(F)F)cn3)nc(-c3cccnc3)c2ncn1[C@H]1COC[C@H]1O [Compound 145, 3-((3S,4S)-4-hydroxytetrahydrofuran-3-yl)-8-(pyridin-3-yl)-6-(5-(trifluoromethyl)pyridin-2-yl)pyrido[3,4-d]pyrimidin-4(3H)-one] | < 100 nM | – | –
26 | O=c1c2cc(-c3ccc(Cl)cc3)nc(-c3cccnc3)c2ncn1[C@@H]1COC[C@@H]1O (stereo in doubt) [Compound 71] | < 100 nM | – | –
